Results taken from PMC6072243 (ACS Omega, 2018).
Like-named read-outs stand apart in the source and are kept apart here.

Legend:
JNK3 = JNK3 (Homo sapiens, UniProt P53779); test: JNK3 enzyme-linked immunosorbent assay; type: biochemical
p38α MAPK = p38α MAPK (Homo sapiens, UniProt Q16539); test: p38α MAPK enzyme-linked immunosorbent assay; type: biochemical; settings: for fold higher activity for p38α MAPK than for JNK3: ratio of IC50 values; for inhibition at 10 µM: read-out: Percent inhibition of p38α MAPK at indicated concentration
Sequence of p38α MAPK (Q16539 whole entry): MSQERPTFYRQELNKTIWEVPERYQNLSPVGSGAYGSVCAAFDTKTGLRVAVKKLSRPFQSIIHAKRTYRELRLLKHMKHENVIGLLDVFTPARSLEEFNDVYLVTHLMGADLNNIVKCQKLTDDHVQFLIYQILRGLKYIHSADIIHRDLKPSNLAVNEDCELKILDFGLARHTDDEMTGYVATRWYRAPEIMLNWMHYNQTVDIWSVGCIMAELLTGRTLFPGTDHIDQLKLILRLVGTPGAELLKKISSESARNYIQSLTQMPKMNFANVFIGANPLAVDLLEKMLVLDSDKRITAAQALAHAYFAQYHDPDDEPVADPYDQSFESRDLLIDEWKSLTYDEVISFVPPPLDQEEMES

Sequence of JNK3 (P53779 whole entry): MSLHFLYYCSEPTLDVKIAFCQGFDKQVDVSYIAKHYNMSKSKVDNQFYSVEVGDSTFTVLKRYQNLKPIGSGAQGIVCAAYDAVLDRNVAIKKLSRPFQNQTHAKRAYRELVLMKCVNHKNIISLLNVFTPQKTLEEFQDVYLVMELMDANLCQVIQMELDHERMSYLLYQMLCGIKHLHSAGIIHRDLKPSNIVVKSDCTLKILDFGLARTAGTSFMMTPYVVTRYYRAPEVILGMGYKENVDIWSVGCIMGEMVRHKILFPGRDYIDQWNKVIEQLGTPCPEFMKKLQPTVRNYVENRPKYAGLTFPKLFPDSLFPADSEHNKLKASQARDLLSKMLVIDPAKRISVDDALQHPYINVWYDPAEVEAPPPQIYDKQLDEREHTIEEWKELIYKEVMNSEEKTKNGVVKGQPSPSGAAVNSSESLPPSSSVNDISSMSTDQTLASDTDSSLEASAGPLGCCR

Row | SMILES | IC50 (JNK3) | IC50 (p38α MAPK) | fold higher activity for p38α MAPK than for JNK3 (p38α MAPK) | IC50 (JNK3; read-out: IC50 ± SD JNK3, ELISA, mean of three experiments (SP600125 n = 16)) | inhibition at 10 µM (JNK3; read-out: Percent inhibition of JNK3 at indicated concentration) | inhibition at 10 µM (p38α MAPK) | fold drop in potency on JNK3 versus parent compound 44 (JNK3)
1 | CSc1nc(-c2ccc(F)cc2)c(-c2ccnc(Nc3ccc(N4CCOCC4)cc3)c2)[nH]1 [Compound 5, 4-(4-(4-Fluorophenyl)-2-(methylthio)-1H-imidazol-5-yl)-N-(4-morpholinophenyl)pyridin-2-amine] | 38 ± 2 nM | 17 ± 1 nM | – | – | – | – | –
2 | O=c1[nH]c(-c2ccc(F)cc2)c(-c2ccnc(Nc3ccc(N4CCOCC4)cc3)c2)[nH]1 [Compound 8, 4-(4-Fluorophenyl)-5-(2-((4-morpholinophenyl)amino)pyridin-4-yl)-1,3-dihydro-2H-imidazol-2-one] | 142 ± 28 nM | 34 ± 4 nM | – | – | – | – | –
3 | CCc1nc(-c2ccc(F)cc2)c(-c2ccnc(Nc3ccc(N4CCOCC4)cc3)c2)[nH]1 [Compound 13, 4-(2-Ethyl-4-(4-fluorophenyl)-1H-imidazol-5-yl)-N-(4-morpholinophenyl)pyridin-2-amine] | 34 ± 0.2 nM | 9 ± 4 nM | – | – | – | – | –
4 | c1ccc(-c2nc[nH]c2-c2ccnc(Nc3ccc(N4CCOCC4)cc3)c2)cc1 [Compound 18a, N-(4-Morpholinophenyl)-4-(4-phenyl-1H-imidazol-5-yl)pyridin-2-amine] | 37 ± 3 nM | 24 ± 3 nM | – | – | – | – | –
5 | Clc1ccccc1-c1nc[nH]c1-c1ccnc(Nc2ccc(N3CCOCC3)cc2)c1 [Compound 18b, 4-(4-(2-Chlorophenyl)-1H-imidazole-5-yl)-N-(4-morpholinophenyl)pyridin-2-amine] | 60 ± 8 nM | 38 ± 2 nM | – | – | – | – | –
6 | Brc1ccccc1-c1nc[nH]c1-c1ccnc(Nc2ccc(N3CCOCC3)cc2)c1 [Compound 18c, 4-(4-(2-Bromophenyl)-1H-imidazol-5-yl)-N-(4-morpholinophenyl)pyridin-2-amine] | 131 ± 21 nM | 61 ± 2 nM | – | – | – | – | –
7 | FC(F)(F)c1cccc(-c2nc[nH]c2-c2ccnc(Nc3ccc(N4CCOCC4)cc3)c2)c1 [Compound 18d, N-(4-Morpholinophenyl)-4-(4-(3-(trifluoromethyl)phenyl)-1H-imidazol-5-yl)pyridin-2-amine] | 143 ± 12 nM | 22 ± 3 nM | 6 fold | – | – | – | –
8 | c1ccc2cc(-c3nc[nH]c3-c3ccnc(Nc4ccc(N5CCOCC5)cc4)c3)ccc2c1 [Compound 18e, N-(4-Morpholinophenyl)-4-(4-(naphthalen-2-yl)-1H-imidazol-5-yl)pyridin-2-amine] | 31 ± 3 nM | 16 ± 3 nM | – | – | – | – | –
9 | Cn1cc(-c2nc[nH]c2-c2ccnc(Nc3ccc(N4CCOCC4)cc3)c2)cn1 [Compound 18f, 4-(4-(1-Methyl-1H-pyrazol-4-yl)-1H-imidazol-5-yl)-N-(4-morpholinophenyl)pyridin-2-amine] | 758 ± 49 nM | 3260 nM | – | – | – | – | –
10 | c1cc(-c2[nH]cnc2C2CCCCC2)cc(Nc2ccc(N3CCOCC3)cc2)n1 [Compound 18g, 4-(4-Cyclohexyl-1H-imidazol-5-yl)-N-(4-morpholinophenyl)pyridin-2-amine] | 1720 nM | 726 ± 21 nM | 2 fold | – | – | – | –
11 | c1cc(-c2[nH]cnc2C2CCCC2)cc(Nc2ccc(N3CCOCC3)cc2)n1 [Compound 18h, 4-(4-Cyclopentyl-1H-imidazol-5-yl)-N-(4-morpholinophenyl)pyridin-2-amine] | – | 1720 nM | – | 2190 nM | – | – | –
12 | c1cc(-c2[nH]cnc2C2CCC2)cc(Nc2ccc(N3CCOCC3)cc2)n1 [Compound 18i, 4-(4-Cyclobutyl-1H-imidazol-5-yl)-N-(4-morpholinophenyl)pyridin-2-amine] | 1760 nM | 2260 nM | – | – | – | – | –
13 | c1cc(-c2[nH]cnc2C2CC2)cc(Nc2ccc(N3CCOCC3)cc2)n1 [Compound 18j, 4-(4-Cyclopropyl-1H-imidazol-5-yl)-N-(4-morpholinophenyl)pyridin-2-amine] | 1080 nM | 4020 nM | – | – | – | – | –
14 | CC(C)(C)c1nc[nH]c1-c1ccnc(Nc2ccc(N3CCOCC3)cc2)c1 [Compound 18k, 4-(4-(tert-Butyl)-1H-imidazol-y-yl)-N-(4-morpholinophenyl)pyridin-2-amine] | > 10000 nM | > 10000 nM | – | – | 32% | 41% | –
15 | CC(C)c1nc[nH]c1-c1ccnc(Nc2ccc(N3CCOCC3)cc2)c1 [Compound 18l, 4-(4-Isopropyl-1H-imidazol-5-yl)-N-(4-morpholinophenyl)pyridin-2-amine] | 2830 nM | 10000 nM | – | – | – | 50% | –
16 | Cc1nc[nH]c1-c1ccnc(Nc2ccc(N3CCOCC3)cc2)c1 [Compound 38, 4-(4-Methyl-1H-imidazol-5-yl)-N-(4-morpholinophenyl)pyridin-2-amine] | 833 ± 139 nM | > 10000 nM | – | – | – | 41% | –
17 | CCc1nc[nH]c1-c1ccnc(Nc2ccc(N3CCOCC3)cc2)c1 [Compound 39, 4-(4-Ethyl-1H-imidazol-5-yl)-N-(4-morpholinophenyl)pyridin-2-amine] | – | > 10000 nM | – | – | – | 34% | –
18 | CSc1ncc(-c2ccnc(Nc3ccc(N4CCOCC4)cc3)c2)[nH]1 [Compound 43, 4-(2-(Methylthio)-1H-imidazol-5-yl)-N-(4-morpholinophenyl)pyridin-2-amine] | 562 ± 21 nM | > 10000 nM | – | – | – | 43% | –

Row | SMILES | IC50 (JNK3) | IC50 (p38α MAPK) | fold higher activity for p38α MAPK than for JNK3 (p38α MAPK) | IC50 (JNK3; read-out: IC50 ± SD JNK3, ELISA, mean of three experiments (SP600125 n = 16)) | inhibition at 10 µM (JNK3; read-out: Percent inhibition of JNK3 at indicated concentration) | inhibition at 10 µM (p38α MAPK) | fold drop in potency on JNK3 versus parent compound 44 (JNK3)
19 | CCc1nc(SC)[nH]c1-c1ccnc(Nc2ccc(N3CCOCC3)cc2)c1 [Compound 45, 4-(4-Ethyl-2-(methylthio)-1H-imidazol-5-yl)-N-(4-morpholinophenyl)pyridin-2-amine] | 1100 nM | > 10000 nM | – | – | – | 38% | –
20 | Cc1[nH]c(N)nc1-c1ccnc(Nc2ccc(N3CCOCC3)cc2)c1 [Compound 47, 4-(2-Amino-5-methyl-1H-imidazol-4-yl)-N-(4-morpholinophenyl)pyridin-2-amine] | – | > 10000 nM | – | – | – | 43% | –
21 | CSc1nc(C)c(-c2ccnc(NC(C)C(C)C)c2)[nH]1 (stereo not shown) [Compound 48a, 4-(4-Methyl-2-(methylthio)-1H-imidazol-5-yl)-N-(3-methylbutan-2-yl)pyridin-2-amine] | 2590 nM | > 10000 nM | – | – | – | 34% | –
22 | CSc1nc(C)c(-c2ccnc(NC(C)c3ccccc3)c2)[nH]1 (stereo not shown) [Compound 48b, 4-(4-Methyl-2-(methylthio)-1H-imidazol-5-yl)-N-(1-phenylethyl)pyridin-2-amine] | 7610 nM | 3460 nM | – | – | – | – | –
23 | CSc1nc(C)c(-c2ccnc(NC3CCC3)c2)[nH]1 [Compound 48c, N-Cyclobutyl-4-(4-methyl-2-(methylthio)-1H-imidazol-5-yl)pyridin-2-amine] | 3040 nM | > 10000 nM | – | – | – | 36% | –
24 | CSc1nc(C)c(-c2ccnc(NC3CCCC3)c2)[nH]1 [Compound 48d, N-Cyclopentyl-4-(4-methyl-2-(methylthio)-1H-imidazol-5-yl)pyridin-2-amine] | 1570 nM | > 10000 nM | – | – | – | 47% | –
25 | CSc1nc(C)c(-c2ccnc(NC3CCCCC3)c2)[nH]1 [Compound 48e, N-Cyclohexyl-4-(4-methyl-2-(methylthio)-1H-imidazol-5-yl)pyridin-2-amine] | 671 ± 74 nM | > 10000 nM | – | – | – | 31% | –
26 | CSc1nc(C)c(-c2ccnc(NC3CCOCC3)c2)[nH]1 [Compound 48f, 4-(4-Methyl-2-(methylthio)-1H-imidazol-5-yl)-N-(tetrahydro-2H-pyran-4-yl)pyridin-2-amine] | – | > 10000 nM | – | – | – | 27% | –
27 | CSc1nc(C)c(-c2ccnc(N[C@H]3CC[C@H](O)CC3)c2)[nH]1 [Compound 48g, trans-4-((4-(4-Methyl-2-(methylthio)-1H-imidazol-5-yl)pyridin-2-yl)amino)cyclohexan-1-ol] | 457 ± 72 nM | > 10000 nM | – | – | – | 35% | –
28 | CSc1nc(C)c(-c2ccnc(N[C@H]3CC[C@H](N)CC3)c2)[nH]1 [Compound 48h, trans-N1-(4-(4-Methyl-2-(methylthio)-1H-imidazol-5-yl)pyridin-2-yl)cyclohexane-1,4-diamine] | 941 ± 75 nM | > 10000 nM | – | – | – | 46% | 3 fold
29 | CSc1nc(C)c(-c2ccnc(N[C@H]3CC[C@H](NC(C)=O)CC3)c2)[nH]1 [Compound 48i, N-(trans-4-((4-(4-Methyl-2-(methylthio)-1H-imidazol-5-yl)pyridin-2-yl)amino)cyclohexyl)acetamide] | 819 ± 141 nM | > 10000 nM | – | – | – | 37% | –
30 | CSc1nc(C)c(-c2ccnc(N[C@H]3CC[C@H](NC(=O)c4ccccc4)CC3)c2)[nH]1 [Compound 48j, N-(trans-4-((4-(4-Methyl-2-(methylthio)-1H-imidazol-5-yl)pyridin-2-yl)amino)cyclohexyl)benzamide] | – | > 10000 nM | – | – | – | 12% | –
31 | CSc1nc(C)c(-c2ccnc(N[C@H]3CC[C@H](NC(=O)C4CCCCC4)CC3)c2)[nH]1 [Compound 48k, N-(trans-4-((4-(4-Methyl-2-(methylthio)-1H-imidazol-5-yl)pyridin-2-yl)amino)cyclohexyl)cyclohexanecarboxamide] | 2230 nM | > 10000 nM | – | – | – | 10% | –
32 | CSc1nc(C)c(-c2ccnc(N[C@H]3CC[C@H](NC(=O)C(C)(C)C)CC3)c2)[nH]1 [Compound 48l, N-(trans-4-((4-(4-Methyl-2-(methylthio)-1H-imidazol-5-yl)pyridin-2-yl)amino)cyclohexyl)pivalamide] | – | > 10000 nM | – | – | – | 13% | –
33 | CSc1nc(C)c(-c2ccnc(Nc3ccc(N)cc3)c2)[nH]1 [Compound 48m, N1-(4-(4-Methyl-2-(methylthio)-1H-imidazol-5-yl)pyridin-2-yl)benzene-1,4-diamine] | 353 ± 58 nM | > 10000 nM | – | – | – | 38% | –
34 | CSc1nc(C)c(-c2ccnc(Nc3ccc(NC(C)=O)cc3)c2)[nH]1 [Compound 48n, N-(4-((4-(4-Methyl-2-(methylthio)-1H-imidazol-5-yl)pyridin-2-yl)amino)phenyl)acetamide] | 415 ± 40 nM | > 10000 nM | – | – | – | 32% | –
35 | Oc1c2ccccc2c2c3c(cccc13)N=N2 [SP600125, reference compound] | 171 ± 36 nM | – | – | – | – | – | –
